Source: patent publication US12447150B2, “Treatment of cancer by combination of immune checkpoint inhibitor and folfirinox therapy” (ONO PHARMACEUTICAL CO., LTD., priority 2018, dated 2025)

Test system: distant metastatic pancreatic cancer
Assay: Multicenter, open-label study of Nivolumab in combination with mFFX therapy; anti-tumor effect by CT/MRI according to RECIST guideline version 1.1
Assay type: in vivo, patients
Settings: 16 weeks after start of administration, central judgment
Procedure: The purpose of this clinical trial is to evaluate the efficacy and safety in combination of Nivolumab and mFFX therapy for patients with distant metastatic pancreatic cancer, having no history of chemotherapy. The clinical trial can evaluate the combined effect of Nivolumab and mFFX therapy.
Patients with distant metastatic pancreatic cancer, having no history of chemotherapy
Nivolumab was intravenously administered at 480 mg every 4 weeks over 30 minutes, and Nivolumab was continuously administered until falling into the prescribed criterion for discontinuing the administration of Nivolumab. No change in dose of Nivolumab is allowed. When Nivolumab and mFFX therapy were administered on the same day, Nivolumab was administered initially, and at least 30 minutes after the end of Nivolumab administration, mFFX therapy started.
Oxaliplatin was intravenously administered at 85 mg/m^2 over 2 hours, and then levofolinate was intravenously administered at 200 mg/m^2 over 2 hours. 30 minutes after the start of levofolinate administration, irinotecan was intravenously administered at 150 mg/m^2 over 1.5 hours. Further, after completion of levofolinate administration, fluorouracil was intravenously administered at 2400 mg/m^2 over 46 hours. This was set as one cycle and repeated every 2 weeks.
The anti-tumor effect was evaluated by image diagnosis using CT/magnetic resonance imaging (MRI) on chest, abdomen and pelvis, and measuring the tumor diameter in target lesion according to RECIST guideline version 1.1. The diagnosis imaging (measurement of tumor diameter and judgement of anti-tumor effect) was conducted at the following time points. […]
6 months after the first subject was enrolled, for 7 subjects in which the image diagnosis twice every 8 weeks as defined in the clinical trial protocol was completed (16 weeks after the start of administration of the drug), the effectiveness was evaluated (central judgment).

[1] = Nivolumab 480 mg i.v. every 4 weeks in combination with mFFX therapy, 7 subjects evaluated

**Q.** How did the response rate (Nivolumab 480 mg i.v. every 4 weeks in combination with mFFX therapy every 2 weeks, 7 subjects with distant metastatic pancreatic cancer, no history of chemotherapy) turn out when Nivolumab was run?
**A.** 42.9%

**Q.** What about the “CR (number of cases)” value [1] of the same substance?
**A.** 0 cases

**Q.** What about the “PR (number of cases)” value [1] of the same substance?
**A.** 3 cases
